Experimental data from ChEMBL document CHEMBL2396563, “Inhibitory constituents of the heartwood of Dalbergia odorifera on nitric oxide production in RAW 264.7 macrophages” (Bioorg Med Chem Lett, 2013).

What was measured:
[1] = Antiinflammatory activity in mouse RAW264.7 cells assessed as inhibition of LPS-induced nitric oxide production after 24 hrs by Griess assay; type: functional, cell-based; settings: RAW264.7, 24 h
[2] = Cytotoxicity against mouse RAW264.7 cells by CCK assay; type: cell-based

Row | Compound | IC50 [1] [µM] | Activity [2]
1 | O=C1C[C@@H](c2cc(O)cc(O)c2)Oc2cc(O)cc(O)c21 | > 100 | Non-toxic
2 | COc1ccc2c(c1)O[C@H]1c3ccc(O)cc3OC[C@@H]21 | 83.7 | Non-toxic
3 | COc1cc(OC)c([C@H]2COc3cc(O)ccc3C2=O)cc1OC | > 100 | Non-toxic
4 | COc1cc2c(cc1O)C(=O)C[C@@H](c1ccc(O)cc1)O2 | > 100 | Non-toxic
5 | COc1cc2oc(=O)cc(-c3ccc(O)c(O)c3)c2cc1O | 45.5 | Non-toxic
6 | C=C[C@H](c1cccc(O)c1)c1cc(OC)c(OC)cc1OC | 70.3 | Non-toxic
7 | C=C[C@H](c1ccccc1)c1cc(OC)c(OC)cc1O | 73.9 | Non-toxic
8 | O=C(c1ccc(O)cc1O)[C@H](O)Cc1ccc(O)c(O)c1 | > 100 | Non-toxic
9 | O=C(c1ccc(O)cc1O)[C@H](O)Cc1ccc(O)cc1 | > 100 | Non-toxic
10 | COc1cc2c(=O)c3ccccc3oc2cc1O | > 100 | Non-toxic
11 | COc1ccc([C@@]2(O)COc3cc(O)ccc3C2=O)c(OC)c1 | > 100 | Non-toxic
12 | COc1ccc(-c2coc3cc(O)ccc3c2=O)c(OC)c1 [2'-METHOXYFORMONETIN] | > 100 | Non-toxic
13 | C=C[C@H](c1ccccc1O)c1cc(OC)c(OC)cc1OC [5-O-METHYLLATIFOLIN] | 74 | Non-toxic
14 | COc1ccc([C@@H]2COc3cc(O)ccc3C2=O)c(OC)c1OC [(3R)-3'-O-METHYLVIOLANONE] | > 100 | Non-toxic
15 | COc1ccc([C@@H]2COc3cc(O)ccc3C2=O)c(OC)c1 [(3R)-SATIVANONE] | > 100 | Non-toxic
16 | COc1ccc([C@@H]2COc3cc(O)ccc3C2=O)c(OC)c1O [(3R)-VIOLANONE] | > 100 | Non-toxic
17 | O=C(/C=C/c1ccc(O)c(O)c1)c1ccc(O)cc1O [BUTEIN] | 35.1 | Non-toxic
18 | O=c1c(-c2ccc(O)cc2)coc2cc(O)ccc12 [DAIDZEIN] | > 100 | Non-toxic
19 | COc1ccc(-c2coc3cc(O)ccc3c2=O)cc1 [FORMONONETIN] | 56.1 | Non-toxic
20 | O=C(/C=C/c1ccc(O)cc1)c1ccc(O)cc1O [ISOLIQUIRITIGENIN] | 72 | Non-toxic
21 | C=C[C@H](c1ccccc1O)c1cc(O)c(OC)cc1OC [LATIFOLIN] | 73.2 | Non-toxic
22 | COc1cc2oc(=O)cc(-c3ccc(O)cc3)c2cc1O [MELANETTIN] | 53.2 | Non-toxic
23 | COc1cc(-c2coc3cc(O)cc(O)c3c2=O)c(OC)cc1O [OLIBERGIN A] | 45.5 | Non-toxic
24 | O=c1c(-c2ccc(O)c(O)c2)coc2cc(O)cc(O)c12 [OROBOL] | 43.7 | Non-toxic
25 | N=C(N)NN [PIMAGEDINE] | 16.6 | –
26 | O=C1C[C@@H](c2ccccc2)Oc2cc(O)cc(O)c21 [PINOCEMBRIN] | 18.1 | Non-toxic
27 | COc1cc(O)c2c(c1)O[C@H](c1ccccc1)CC2=O [PINOSTROBIN] | 53.5 | Non-toxic
